Measured values reported in US9388171B2, “Serine/threonine kinase inhibitors” (Array BioPharma Inc., priority 2012, dated 2016).
pIC50: −log10 of the molar value. Like-named read-outs stand apart in the source and are kept apart here.

How the values were obtained:
[1] = molecular target: human ERK-2 (Mitogen Activated Kinase 1) (Homo sapiens (Human), UniProt P28482); test: ERK-2 Enzymatic Assay; type: biochemical
Method: Compounds were tested in an enzymatic assay using human ERK-2 (Mitogen Activated Kinase 1), recombinantly expressed as an n-terminal 6-His fusion protein in E. coli and corresponding to a 8-360. The substrate used was the fluorescent Omnia peptide S/T17 (Invitrogen of Carlsbad, Calif.; Cat. KNZ1171C). Test compounds were diluted in DMSO in 3-fold serial dilutions at 100× final concentrations. […] The assay was run at ambient temperature in a white 384-well polypropylene plate (Nunc, Inc of Naperville, Ill.; Cat. 267462) collecting data every 50 seconds for approximately 30 minutes on an Envision plate reader (PerkinElmer, Inc. of Waltham, Mass.); Excitation 340 nm/Emission 495 nm. The data collected from each well was fit to a straight line, and the resulting rates were used to calculate percent of control. Percent of control was plotted against compound concentration, and IC50 values were determined using a four-parameter fit. Representative data is in TABLE 3 (infra).

[2] = tested on: PMA-stimulated P90RSK(Ser380) phosphorylation in HepG2 cells; test: Cellular P90RSK(Ser380) Phosphorylation Assay; type: cell-based; settings: Homo sapiens, 1.5 hour compound incubation, PMA 100 ng/mL
Method: Cellular P90RSK(Ser380) Phosphorylation Assay
Inhibition of PMA-stimulated P90RSK(Ser380) phosphorylation was determined by the following in vitro cellular mechanistic assay, which comprises incubating cells with a compound for 1.5 hours and quantifying fluorescent pP90RSK(Ser380) signal on fixed cells and normalizing to GAPDH signal.
Materials and Methods: HepG2 cells were obtained from ATCC and grown in DMEM supplemented with 10% fetal bovine serum. Cells were plated in 96-well plates at 35,000 cells/well and allowed to attach overnight at 37° C./5% CO2. Diluted compounds were then added at a final concentration of 0.5% DMSO. After 1.5 hour compound incubation, cells were stimulated with the addition of PMA (phorbol 12-myristate 13-acetate) at a final concentration of 100 ng/mL; the PMA stimulation was a 30-minute incubation at 37° C./5% CO2. After the 30-minute PMA stimulation, cells were washed with PBS and fixed in 3.7% formaldehyde in PBS at room temperature for 15-20 minutes. This was followed by another wash in PBS and then permeabilization in 100% MeOH at room temperature for 10-15 minutes. Following the permeabilization incubation, cells were washed in PBS/0.05% Tween-20, followed by a block in Odyssey blocking buffer (LI-COR Biosciences) for at least 1 hour. […] Both secondary antibodies were used at a 1:1000 dilution. Cells were then washed and analyzed for fluorescence at both wavelengths using the Odyssey Infrared Imaging System (LI-COR Biosciences). Phosphorylated P90RSK(Ser380) signal was normalized to GAPDH signal.

[3] = 25 uM ATP, Omnia peptide S/T17, read-out: Erk Enzymatic Assay IC50

Chain of human ERK-2 (Mitogen Activated Kinase 1) (P28482 8-360): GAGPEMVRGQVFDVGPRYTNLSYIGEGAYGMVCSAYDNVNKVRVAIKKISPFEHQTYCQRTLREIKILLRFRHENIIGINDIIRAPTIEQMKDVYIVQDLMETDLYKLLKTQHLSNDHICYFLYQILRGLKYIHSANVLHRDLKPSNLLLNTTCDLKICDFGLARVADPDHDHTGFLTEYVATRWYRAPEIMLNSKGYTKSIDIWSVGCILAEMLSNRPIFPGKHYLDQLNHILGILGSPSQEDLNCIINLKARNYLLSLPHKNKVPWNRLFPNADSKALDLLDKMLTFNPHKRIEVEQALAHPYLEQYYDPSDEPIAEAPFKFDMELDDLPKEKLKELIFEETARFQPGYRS

Structure (SMILES): CC[C@@H](NC(=O)c1ccc2cnc(Nc3cc(C)nn3C)cc2c1)c1ccc(Cl)c(F)c1 [II-46, (R)—N-(1-(4-Chloro-3-fluorophenyl)propyl)-3-(1,3-dimethyl-1H-pyrazol-5-ylamino)isoquinoline-6-carboxamide]
- pIC50 [1, 3]: 8.19
- pIC50 [2]: 7.80

Structure (SMILES): O=C(NCCc1ccccc1)c1ccc2cnc(NC3CCOCC3)cc2n1 [I-30, 7-(Tetrahydro-pyran-4-ylamino)-[1,6]naphthyridine-2-carboxylic acid phenethyl-amide]
- pIC50 [1, 3]: 8.23
- pIC50 [2]: 6.32

Structure (SMILES): COc1ccc([C@@H]2CN(C)C[C@H]2NC(=O)c2ccc3cnc(Nc4cc(C)nn4C)cc3c2)cc1 [II-64, 3-((1,3-dimethyl-1H-pyrazol-5-yl)amino)-N-((3S,4R)-4-(4-methoxyphenyl)-1-methylpyrrolidin-3-yl)isoquinoline-6-carboxamide]
- pIC50 [1, 3]: 8.57
- pIC50 [2]: 8.26

Structure (SMILES): O=C(N[C@H](CO)c1ccc(Cl)c(F)c1)c1ccc2cnc(NC3CCOCC3)cc2n1 [I-5, 7-(Tetrahydro-pyran-4-ylamino)-[1,6]naphthyridine-2-carboxylic acid [(S)-1-(4-chloro-3-fluoro-phenyl)-2-hydroxy-ethyl]-amide]
- pIC50 [1, 3]: 8.39
- pIC50 [2]: 7.79

Structure (SMILES): COc1ccc([C@H](NC(=O)c2ccc3cnc(N[C@@H]4CCOC4)cc3n2)c2cnn(C)c2)cc1F (single isomer, unassigned) [I-53]
- pIC50 ([1]; read-out: ERK IC50): 8.56

Structure (SMILES): O=C(NCc1ccc(Cl)c(F)c1)c1ccc2cnc(NC3CCOCC3)cc2n1 [I-11, 7-(Tetrahydro-pyran-4-ylamino)-[1,6]naphthyridine-2-carboxylic acid 4-chloro-3-fluoro-benzylamide]
- pIC50 [1, 3]: 8.46
- pIC50 [2]: 7.00

Structure (SMILES): Cn1cc([C@@H](NC(=O)c2ccc3cnc(Nc4ccnn4C)cc3c2)c2ccc(Cl)c(F)c2)cn1 [II-15, (S)—N-((4-Chloro-3-fluorophenyl)(1-methyl-1H-pyrazol-4-yl)methyl)-3-(1-methyl-1H-pyrazol-5-ylamino)isoquinoline-6-carboxamide]
- pIC50 [1, 3]: 8.64
- pIC50 [2]: 8.00

Structure (SMILES): Cn1nccc1Nc1cc2nc(C(=O)N[C@H](CO)c3ccc(Cl)c(F)c3)ccc2cn1 [I-8, 7-(2-Methyl-2H-pyrazol-3-ylamino)-[1,6]naphthyridine-2-carboxylic acid [(S)-1-(4-chloro-3-fluoro-phenyl)-2-hydroxy-ethyl]-amide]
- pIC50 [2]: 8.01

Structure (SMILES): COc1ccc([C@H](NC(=O)c2ccc3cnc(NC4CCOCC4)cc3n2)c2cnn(C)c2)cc1F [I-21, (S)—N-((3-Fluoro-4-methoxyphenyl)(1-methyl-1H-pyrazol-4-yl)methyl)-7-(tetrahydro-2H-pyran-4-ylamino)-1,6-naphthyridine-2-carboxamide]
- pIC50 [1, 3]: 8.73
- pIC50 [2]: 7.73

Structure (SMILES): COc1ccc([C@H](NC(=O)c2ccc3cnc(Nc4cc(C)nn4C)cc3c2)c2cnn(C)c2)cc1F [II-37, (S)-3-(1,3-Dimethyl-1H-pyrazol-5-ylamino)-N-((3-fluoro-4-methoxyphenyl)(1-methyl-1H-pyrazol-4-yl)methyl)isoquinoline-6-carboxamide]
- pIC50 [1, 3]: 8.34
- pIC50 [2]: 7.52

Structure (SMILES): COc1ccc([C@H](NC(=O)c2ccc3cnc(N[C@@H](C)CO)cc3n2)c2cnn(C)c2)cc1F [I-24, N—((S)-(3-Fluoro-4-methoxyphenyl)(1-methyl-1H-pyrazol-4-yl)methyl)-7-((S)-1-hydroxypropan-2-ylamino)-1,6-naphthyridine-2-carboxamide]
- pIC50 [1, 3]: 8.94
- pIC50 [2]: 7.42

Structure (SMILES): CC[C@@H](NC(=O)c1ccc2cnc(NC3CCOCC3)cc2n1)c1ccc(OC)c(F)c1 [I-6, 7-(Tetrahydro-pyran-4-ylamino)-[1,6]naphthyridine-2-carboxylic acid [(R)-1-(3-fluoro-4-methoxy-phenyl)-propyl]-amide]
- pIC50 [1, 3]: 8.68
- pIC50 [2]: 8.22

Structure (SMILES): COc1ccc([C@H](NC(=O)c2ccc3cnc(N[C@H]4CCOC4)cc3n2)c2cnn(C)c2)cc1F (single isomer, unassigned) [I-52]
- pIC50 ([1]; read-out: ERK IC50): 8.90

Structure (SMILES): C[C@@H](CO)Nc1cc2cc(C(=O)NCc3cc4c(F)cccc4[nH]3)ccc2cn1 [II-23, 3-((S)-2-Hydroxy-1-methyl-ethylamino)-isoquinoline-6-carboxylic acid (4-fluoro-1H-indol-2-ylmethyl)-amide]
- pIC50 [1, 3]: 7.69
- pIC50 [2]: 7.19

Structure (SMILES): O=C(N[C@H](CO)c1ccc(Cl)c(F)c1)c1ccc2cnc(NC3CCOCC3)cc2c1 [II-12, 3-(Tetrahydro-pyran-4-ylamino)-isoquinoline-6-carboxylic acid [(S)-1-(4-chloro-3-fluoro-phenyl)-2-hydroxy-ethyl]-amide]
- pIC50 [1, 3]: 8.55
- pIC50 [2]: 7.83

Structure (SMILES): CC[C@@H](NC(=O)c1ccc2cnc(NC3CCOCC3)cc2c1)c1ccc(Cl)c(F)c1 [II-2, 3-(Tetrahydro-pyran-4-ylamino)-isoquinoline-6-carboxylic acid [(R)-1-(4-chloro-3-fluoro-phenyl)-propyl]-amide]
- pIC50 [1, 3]: 8.60
- pIC50 [2]: 8.07
